Data as given in patent publication US8674113B2, “Compounds” (Boehringer Ingelheim International GmbH, priority 2010, dated 2014).
Read-outs that look alike come from different tables or passages of the source.

Key:
[1] = biological target: recombinant human mPGES-1 (Homo sapiens (Human), UniProt O14684); assay: mPGES-1 enzyme assay (HTRF detection of PGE2); format: biochemical
Protocol: Microsomes from Rosetta E. coli bacteria expressing recombinant human mPGES-1 can be derived as described below:
Inoculate 5 ml LB with Ampicilin (50 μg/ml) and Chloramphenicol (34 μg/ml) with bacteria from freeze culture. Incubate 8 h at 37° C. with 200 rpm. Thereafter, inoculate 500-1000 ml LB containing Amp and Chloro with the 5 ml on culture and grow to OD640 of 0.8-1.0. Chill the culture to +4° C. before induction. Induce the culture with IPTG at a final concentration of 400 μM. Express the protein at room temp 18-23° C. with 200 rpm shaking over night.
The following steps can be performed on the following day: • 1. Spin down the cells in 250 ml centrifuge flasks for 15 min at 7000 rpm (Beckmann Coulte Avanti J-E centrifuge) • 2. Dissolve the pellet from 250 ml culture in 12.5 ml homogenization buffer • 3. (15 mM Tris-HCL pH8, 1 mM EDTA pH8, […], 2.5 mM GSH, 1 Tablet Protease inhibitor per 50 ml buffer) • 4. Disintegrate the cells by sonication, 5×10 seconds at 48% amplitude of a 750 W sonifier • 5. Add 2.5 ml MgCl2 (100 mM) and DNase 12.5 μl (0.8 mg/ml) and incubate on ice for 30 min • 6. Spin down the bacteria debris and save the supernatant, 7000 rpm for 15 min • 7. Isolate the protein containing membranes in the supernatant by ultracentrifugation 120000×g for 2 hour at 4° C. (Sorvall T880 rotor). • 8. Discard the supernatant and dissolve the pellet in 20 mM Potassium phosphate buffer pH7.4 (KH2PO4 and K2HPO4) buffer by sonication (5×10 s, 30% of a 50 W sonifier) and aliquot the enzyme and store aliquots at −80° C.
Before each experiment is performed an aliquot of the enzyme is thawed and it can then be dissolved in 0.1 M Potassium phosphate buffer pH7.4 (KH2PO4 and K2HPO4) buffer containing 2.5 mM GSH.
The aim of this assay is to determine the affinity of a test compound for the mPGES-1 enzyme.
47 μl of recombinant human mPGES-1 (˜0.5 μg protein/well) containing microsomal suspension in a buffer containing GSH, (2.5 mmol/L L-Glutathione reduced, dissolved in 0.1 mol/L Phosphat Buffer pH 7.4) is dispensed in a 384-well plate and thereafter 1 μl of the test compound(s) is/are added and incubated for 25 minutes at room temperature. The enzyme reaction is started by the addition of 2 ul PGH2 (final conc 2 μM) disolved in water-free Diglyme. After 60 seconds the reaction is terminated by addition of a stop solution containing FeCl2 (10 μL 0.074 mol/l FeCl2). The samples are diluted between 1:25 in PBS (Phosphate Buffered Saline). 10 μl of the diluted samples are transferred to 384-well low volume plate. In order to quantify the amount of PGE2 that has been formed, a homogenous time resolved fluorescent (HTRF) detecting of PGE2 has been performed using a commercially available kit from Cisbio according to the manufactures recommendation. This HTRF-based assay has been described in detail (see: Goedken et al., J Biomol Screen, 2008, 13(7), 619-625). Briefly, the diluted samples are mixed with 5 μl PGE2-d2 conjugate and 5 μl anti-PGE2 cryptate conjugate. After an incubation period of the plates over night, the fluorescence is measured by the use of an appropriate microplate reader.
The fluorescence of Europium cryptate (maxex=307 nm, maxem=620 nm) and d2-PGE2 (maxex=620 nm, maxem=665 nm) are measured.
The extent of the specific HTRF is measured as a ratio of the emission intensity at 665 nm vs. that at 620 nm at an excitation puts of 320 nm. The quantification plate contains also wells with different concentrations of PGE2 as calibration curve for the calculation of the PGE2 concentrations from the HTRF ratio values.
From all mPGES enzyme assay the background is subtracted and the IC50 is calculated over a nonlinear regression with conventional software.

mPGES-1 in A549 cells = mPGES-1 in A549 cells (Homo sapiens (Human), UniProt O14684); assay: A549 cell-based assay (PGE2 formation, 50% human serum)
Chain of mPGES-1 in A549 cells (O14684 whole entry): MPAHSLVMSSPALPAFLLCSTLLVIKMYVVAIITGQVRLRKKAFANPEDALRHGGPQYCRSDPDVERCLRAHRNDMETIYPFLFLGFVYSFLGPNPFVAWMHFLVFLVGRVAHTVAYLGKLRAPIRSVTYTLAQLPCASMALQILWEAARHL
Summary of the method: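 A549 cells in F-12K with 50% human serum were stimulated 20-24 h with 5 ng/ml IL-1β and 10 nM arachidonic acid in presence of compound or vehicle. PGE2 in the cell-free medium was measured by HTRF, normalised to vehicle (100%). IC50 from 6-8 point titrations.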

[2] = recombinant human mPGES-1 microsomes, PGH2 2 μM, 60 seconds, read-out: mPGES-1 inhibitory effect IC50 in the enzyme assay
[3] = IL-1β 5 ng/ml, 10 nM arachidonic acid, 20-24 h, read-out: mPGES-1 inhibitory effect IC50 in the cell assay

Chain of recombinant human mPGES-1 (O14684 whole entry): as above

| SMILES | IC50 [1, 2] [nM] | IC50 (mPGES-1 in A549 cells; [3]) [nM] | IC50 ([1]; Table C comparison of selected benzimidazoles, read-out: Enzym IC50) [nM] | IC50 (mPGES-1 in A549 cells; Table C comparison of selected benzimidazoles, read-out: Cell IC50) [nM] |
| --- | --- | --- | --- | --- |
| Cn1c(Nc2c(Cl)ccc(CNC(=O)C(C)(C)C)c2Cl)nc2cc(C(=O)N[C@H]3CC[C@H](C(F)(F)F)CC3)c(N3CC[C@H](F)C3)cc21 [Example 18] | 3 | 4 |  |  |
| Cn1c(Nc2c(Cl)ccc(CNC(=O)C(C)(C)C)c2Cl)nc2cc(C(=O)N[C@H]3CC[C@H](C(F)(F)F)CC3)c(N3CC[C@@H](F)C3)cc21 [Example 19] | 3 | 1 |  |  |
| Cn1c(Nc2c(Cl)ccc(CNC(=O)C(C)(C)C)c2Cl)nc2cc(C(=O)N[C@H]3CC[C@H](C(F)(F)F)CC3)c(N3CC(F)(F)C3)cc21 [Example 21] | 4 | 2.5 |  |  |
| Cn1c(Nc2c(Cl)ccc(CNC(=O)C(C)(C)C)c2Cl)nc2cc(C(=O)N[C@H]3CC[C@H](C(F)(F)F)CC3)c(N3CC4CC4C3)cc21 (some centres unmarked) [Example 22] | 5 | 1.5 |  |  |
| CN(c1cc2c(cc1C(=O)NCC(F)(F)F)nc(Nc1c(Cl)ccc(CNC(=O)C(C)(C)C)c1Cl)n2C)C1CC1 [Example 23] | 4 | 1 |  |  |
| Cn1c(Nc2c(Cl)ccc(CNC(=O)C(C)(C)C)c2Cl)nc2cc(C(=O)N[C@H]3CC[C@H](C(F)(F)F)CC3)c(N3CCn4cncc4C3)cc21 [Example 24] | 5 | 44 |  |  |
| CN1CCN(c2cc3c(cc2C(=O)N[C@H]2CC[C@H](C(F)(F)F)CC2)nc(Nc2c(Cl)ccc(CNC(=O)C(C)(C)C)c2Cl)n3C)CC1=O [Example 25] | 4 | 12 |  |  |
| Cn1c(Nc2c(Cl)ccc(CNC(=O)C(C)(C)C)c2Cl)nc2cc(C(=O)NCC(F)(F)F)c(N3CCC(F)(F)C3)cc21 [Example 26, N-(2,2,2-Trifluoroethyl)-2-{2,6-dichloro-3-[(2,2-dimethyl-propionylamino)-methyl]-phenylamino}-6-[3,3-difluoro-pyrrolidinyl]-1-methyl-1H-benzimidazole-5-carboxylic acid amide] | 3 | 3.6 |  |  |
| CN(c1cc2c(cc1C(=O)NCC(F)(F)F)nc(Nc1c(Cl)ccc(CNC(=O)C(C)(C)C)c1Cl)n2C)C1CCCC1 [Example 27] | 2 | 2 |  |  |
| Cn1c(Nc2c(Cl)ccc(CNC(=O)C(C)(C)C)c2Cl)nc2cc(C(=O)NCC(F)(F)F)c(N3CCC(C(F)(F)F)CC3)cc21 [Example 28] | 2 | 1.5 |  |  |
| Cn1c(Nc2c(Cl)ccc(CNC(=O)C(C)(C)C)c2Cl)nc2cc(C(=O)NCC(F)(F)F)c(N3CCC(C(C)(C)O)CC3)cc21 [Example 29, N-(2,2,2-Trifluoroethyl)-2-{2,6-dichloro-3-[(2,2-dimethyl-propionylamino)-methyl]-phenylamino}-6-[4-(1-hydroxy-1-methyl-ethyl)-piperidinyl]-1-methyl-1H-benzimidazole-5-carboxylic acid amide] | 2 | 3 |  |  |
| Cn1c(Nc2c(Cl)ccc(CNC(=O)C(C)(C)C)c2Cl)nc2cc(C(=O)NCC(F)(F)F)c(Nc3ccc(F)c(Cl)c3)cc21 [Example 30] | 5 | 144 |  |  |
| CN(c1ccc(F)c(Cl)c1)c1cc2c(cc1C(=O)NCC(F)(F)F)nc(Nc1c(Cl)ccc(CNC(=O)C(C)(C)C)c1Cl)n2C [Example 31] | 4 | 33 |  |  |
| Cn1c(Nc2c(Cl)ccc(CNC(=O)C(C)(C)C)c2Cl)nc2cc(C(=O)NCC(F)(F)F)c(N3CCc4ccc(Cl)cc4C3)cc21 [Example 32] | 2 | 6 |  |  |
| Cc1nc2c(s1)CN(c1cc3c(cc1C(=O)NCC(F)(F)F)nc(Nc1c(Cl)ccc(CNC(=O)C(C)(C)C)c1Cl)n3C)C2 [Example 33] | 3 | 8 |  |  |
| CN(CCC(F)(F)F)c1cc2c(cc1C(=O)NCC(F)(F)F)nc(Nc1c(Cl)ccc(CNC(=O)C(C)(C)C)c1Cl)n2C [Example 34] | 3 | 1 |  |  |
| Cn1c(Nc2c(Cl)ccc(CNC(=O)C(C)(C)C)c2Cl)nc2cc(C(=O)Nc3ccc(OC(F)(F)F)cc3)c(N3CCC(F)(F)C3)cc21 [Example 35, N-(4-Trifluoromethoxy-phenyl)-2-{2,6-dichloro-3-[(2,2-dimethyl-propionylamino)-methyl]-phenylamino}-6-[3,3-difluoro-pyrrolidinyl]-1-methyl-1H-benzimidazole-5-carboxylic acid amide] | 2 | 1 |  |  |
| CC(NC(=O)c1cc2nc(Nc3c(Cl)ccc(CNC(=O)C(C)(C)C)c3Cl)n(C)c2cc1N1CCC(F)(F)C1)c1cccs1 (centres unmarked) [Example 36] | 5 | 6.5 |  |  |
| Cn1c(Nc2c(Cl)ccc(CNC(=O)C(C)(C)C)c2Cl)nc2cc(C(=O)NC3(c4ccc(F)cc4)CC3)c(N3CCC(F)(F)C3)cc21 [Example 37] | 5 | 3 |  |  |
| Cn1c(Nc2c(Cl)ccc(CNC(=O)C(C)(C)C)c2Cl)nc2cc(C(=O)NC(c3ccccn3)C(F)(F)F)c(N3CCC(F)(F)C3)cc21 (centres unmarked) [Example 38] | 4 | 6 |  |  |
| CC(NC(=O)c1cc2nc(Nc3c(Cl)ccc(CNC(=O)C(C)(C)C)c3Cl)n(C)c2cc1N1CCC(F)(F)C1)C(F)(F)F (centres unmarked) [Example 39] | 1 | 2 |  |  |
| Cn1c(Nc2c(Cl)ccc(CNC(=O)C(C)(C)C)c2Cl)nc2cc(C(=O)Nc3cccc(OC(F)(F)F)c3)c(N3CCC(F)(F)C3)cc21 [Example 40] | 2 | < 1 |  |  |
| Cn1c(Nc2c(Cl)ccc(CNC(=O)C(C)(C)C)c2Cl)nc2cc(C(=O)N[C@H](c3ccccc3)C(F)(F)F)c(N3CCC(F)(F)C3)cc21 [Example 41] | 2 | 7 |  |  |
| Cn1c(Nc2c(Cl)ccc(CNC(=O)C(C)(C)C)c2Cl)nc2cc(C(=O)Nc3ccc(F)c(Cl)c3)c(N3CCC(F)(F)C3)cc21 [Example 42] | 2 | 2 |  |  |
| Cn1c(Nc2c(Cl)ccc(CNC(=O)C(C)(C)C)c2Cl)nc2cc(C(=O)NCc3ncccc3C(F)(F)F)c(N3CCC(F)(F)C3)cc21 [Example 43] | 3 | 5 |  |  |
| Cn1c(Nc2c(Cl)ccc(CNC(=O)C(C)(C)C)c2Cl)nc2cc(C(=O)NCc3ccc(F)cc3C(F)(F)F)c(N3CCC(F)(F)C3)cc21 [Example 44] | 4 | 6 |  |  |
| Cn1c(Nc2c(Cl)ccc(CNC(=O)C(C)(C)C)c2Cl)nc2cc(C(=O)NCC3CC3)c(N3CCC(F)(F)C3)cc21 [Example 45] | 5 | 7 | 5 | 7 |
| Cn1c(Nc2c(Cl)ccc(CNC(=O)C(C)(C)C)c2Cl)nc2cc(C(=O)NCCCC(F)(F)F)c(N3CCC(F)(F)C3)cc21 [Example 46] | 3 | 7 |  |  |
| Cn1c(Nc2c(Cl)ccc(CNC(=O)C(C)(C)C)c2Cl)nc2cc(C(=O)Nc3cccc(C(F)(F)F)n3)c(N3CCC(F)(F)C3)cc21 [Example 47] | 2 | 1 |  |  |
| Cn1c(Nc2c(Cl)ccc(CNC(=O)C(C)(C)C)c2Cl)nc2cc(C(=O)NC(Cc3ccccc3)C(F)(F)F)c(N3CCC(F)(F)C3)cc21 (centres unmarked) [Example 48] | 2 | 8 |  |  |
